# Results taken from PubChem BioAssay (NCI).
#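 Interpolation was linear, between the two tested concentrations surrounding the appropriate level; five concentrations were tested over 48 hours in 96-well plates. GI50 marks 50% less growth. TGI: concentration producing complete growth inhibition.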
# Key:
# Experiment in all cases: NCI anticancer screen, dose series, 48 h
# DU-145 prostate = system: DU-145 prostate
# UACC-62 melanoma = system: UACC-62 melanoma
# U251 CNS = system: U251 CNS
# CAKI-1 renal = system: CAKI-1 renal
# 786-0 renal = system: 786-0 renal
# HCT-116 colon = system: HCT-116 colon
# SK-OV-3 ovarian = system: SK-OV-3 ovarian
# A498 renal = system: A498 renal
# MALME-3M melanoma = system: MALME-3M melanoma
# MDA-MB-231 breast = system: MDA-MB-231 breast
SMILES,GI50 (DU-145 prostate) [µM],TGI (DU-145 prostate) [µM],GI50 (UACC-62 melanoma) [µM],TGI (UACC-62 melanoma) [µM],GI50 (U251 CNS) [µM],TGI (U251 CNS) [µM],GI50 (CAKI-1 renal) [µM],TGI (CAKI-1 renal) [µM],GI50 (786-0 renal) [µM],TGI (786-0 renal) [µM],GI50 (HCT-116 colon) [µM],TGI (HCT-116 colon) [µM],GI50 (SK-OV-3 ovarian) [µM],TGI (SK-OV-3 ovarian) [µM],GI50 (A498 renal) [µM],TGI (A498 renal) [µM],GI50 (MALME-3M melanoma) [µM],TGI (MALME-3M melanoma) [µM],GI50 (MDA-MB-231 breast) [µM],TGI (MDA-MB-231 breast) [µM]
CC1=CC(C)(C)Nc2ccc(Cc3ccc4c(c3)C(C)=CC(C)(C)N4)cc21,10.1,76.1,6.95,29,3.96,> 100,13,> 100,26,> 100,8.69,43.9,17.7,97.1,10.9,61.4,11.8,42,15.7,64.2
C[C@@]1(C(=O)O)CCC[C@]2(C)C1CC[C@]13C[C@@](O)(CO)[C@](O)(CC[C@]12O)C3 (stereo not given in full),> 100,> 100,> 100,> 100,> 100,> 100,> 100,> 100,> 100,> 100,> 100,> 100,> 100,> 100,75.1,> 100,> 100,> 100,> 100,> 100
CN(C)c1cc2c(Nc3ccc4c(cnn4Cc4ccccc4)c3)ncnc2cn1,5.54,> 25,6.96,19.9,7.8,24.4,0.299,> 21.5,8.76,> 25,9.23,> 25,0.104,> 25,16.7,> 25,12.9,> 25,6.1,> 25
Cc1ccc(NC(=S)C#N)c(C)c1,,> 100,,> 100,,> 100,,> 100,,> 100,,> 100,,> 100,,> 100,,> 94.9,,> 100
Cc1ccnc2c(NC(C)CCCN)cc(O)c(O)c12 (stereo not given),11.2,24.2,32.3,> 100,9.43,22.8,38.7,> 100,71.2,> 100,13.8,> 100,39.3,> 100,33.4,> 100,19.4,52.9,16,74
Cc1c(Cl)cccc1NC(=O)c1sc2nc3c(cc2c1N)C(=O)CCC3,0.124,47.3,0.0502,> 100,0.0836,> 37.4,0.0461,> 100,0.0917,> 59.4,0.0644,> 100,0.0597,> 89.7,0.023,0.203,0.0363,> 100,0.138,16.5
COc1cc2c(NC3CCN(C(C)C)CC3)nc(C3CCCCC3)nc2cc1OCCCN1CCCC1,4.75,17.1,5.47,16.8,1.97,5.11,5.01,11.2,6.14,17.7,3.08,14.1,9.57,23.4,2.01,14.1,1.8,3.42,2.61,9.44
